Experimental data from PubChem BioAssay (NCI).
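Interpolation was linear, between the two tested concentrations surrounding the appropriate level; five concentrations were tested over 48 hours in 96-well plates. GI50 marks 50% less growth. At the TGI there is no net growth.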

Tests used:
Assay in all cases: inhibition of tumour cell growth, NCI panel, 48 h
M14 melanoma = system: M14 melanoma
MDA-MB-435 = system: MDA-MB-435
CAKI-1 renal = system: CAKI-1 renal
HCC-2998 colon = system: HCC-2998 colon
SK-OV-3 ovarian = system: SK-OV-3 ovarian
OVCAR-3 ovarian = system: OVCAR-3 ovarian
UACC-257 melanoma = system: UACC-257 melanoma
SN12C renal = system: SN12C renal
OVCAR-4 ovarian = system: OVCAR-4 ovarian
MOLT-4 leukemia = system: MOLT-4 leukemia

SMILES | TGI (M14 melanoma) [µM] | TGI (MDA-MB-435) [µM] | TGI (CAKI-1 renal) [µM] | TGI (HCC-2998 colon) [µM] | TGI (SK-OV-3 ovarian) [µM] | TGI (OVCAR-3 ovarian) [µM] | TGI (UACC-257 melanoma) [µM] | TGI (SN12C renal) [µM] | TGI (OVCAR-4 ovarian) [µM] | TGI (MOLT-4 leukemia) [µM] | GI50 (M14 melanoma) [µM] | GI50 (MDA-MB-435) [µM] | GI50 (CAKI-1 renal) [µM] | GI50 (HCC-2998 colon) [µM] | GI50 (SK-OV-3 ovarian) [µM] | GI50 (OVCAR-3 ovarian) [µM] | GI50 (UACC-257 melanoma) [µM] | GI50 (SN12C renal) [µM] | GI50 (OVCAR-4 ovarian) [µM] | GI50 (MOLT-4 leukemia) [µM]
COc1c2occc2cc2ccc(=O)oc12 | > 100 | > 100 | > 100 | > 100 | > 100 | > 100 | > 100 | > 100 | > 100 | > 100 |  |  |  |  |  |  |  |  |  | 
CCOC(=O)C1=C(C)N(C2OC(COC(C)=O)C(OC(C)=O)C(OC(C)=O)C2OC(C)=O)C(=O)NC1c1ccccc1 (stereo not given) | > 100 |  | > 100 | > 100 | > 100 | > 100 | > 100 | > 100 | > 100 | > 100 |  |  |  |  |  |  |  |  |  | 
C=CCOC1OC(CS(=O)(=O)O)C(OC(C)=O)C(OC(C)=O)C1OC(C)=O (stereo not given) | > 100 | > 100 | > 100 | > 100 | > 100 | > 100 | > 100 | > 100 | > 100 | > 100 |  |  |  |  |  |  |  |  |  | 
CCCCCCCCCC[N+](C)(C)C | 5.83 | 4.29 | 15.3 | 3.53 | 13 | 5.4 | 7.07 | 8.66 | 14.5 | 3.43 | 1.74 | 1.75 | 2.52 | 1.58 | 2.57 | 1.68 | 2.3 | 2.95 | 2.2 | 1.59
c1ccc(N2N=C3N(c4ccccc4)C2N3c2ccccc2)cc1 | 47.6 | 31.6 | > 100 | 77.5 | > 100 | > 100 | 55 | > 100 | > 100 | 62.5 |  |  |  |  |  |  |  |  |  | 
COc1ccc(OCC(C)(C)O)cc1 |  |  | > 100 | > 100 | > 100 | > 100 | > 100 | > 100 | > 100 | > 100 |  |  |  |  |  |  |  |  |  | 
CC(=O)OCc1nnn2c1CCC2 | > 100 |  |  | > 100 | > 100 | > 100 | > 100 | > 100 | > 100 | > 100 |  |  |  |  |  |  |  |  |  | 
CCCCn1c(C)c2c(c1C)C(=O)N(CCN1CCN(c3ccccc3Cl)CC1)C2=O | 51.5 | 90.3 | > 100 | 72.5 | > 100 | > 100 | 74.3 | 61.3 | > 100 | 52.2 |  |  |  |  |  |  |  |  |  | 
CCCCCCC(=O)c1ccc2ccccc2c1O | > 100 | > 100 | 95.4 | > 100 | > 100 |  | > 100 |  | > 100 | > 100 |  |  |  |  |  |  |  |  |  | 
CCOC(=O)/C=C/c1c[nH]c(=O)[nH]c1=O |  |  | > 75 | > 75 | > 61.2 | > 75 | > 75 | > 75 | > 75 | > 48.7 |  |  |  |  |  |  |  |  |  | 
COc1ccc(-c2c3c(nc4[nH]c(=S)[nH]c(=S)c24)CCCC3)cc1OC | > 100 | > 100 | > 100 |  | > 100 | > 100 | > 100 | 86.2 | > 100 | 61.2 |  |  |  |  |  |  |  |  |  | 
